Measurements taken from US7691582B2, “Methods of secretory vimentin detection and modulation” (The Regents of the University of Michigan, priority 2002, dated 2010).
“Also recorded” adds a separate entry of the source.

Experiments:
Format in all cases: cell-based, human
[1] = tested on: vimentin proteolysis in MDM; assay: Vimentin proteolytic products in MDM, Western blot with V9; conditions: MDM treated with E-64 [100 µM], 12 h; FIG. 3e
Experimental: Cells were maintained for 12-48 h in serum-free medium. When applicable, during the incubation in serum-free media cells were treated for 12 h with 10-500 ng ml^−1 IL-10, 0.5-5 ng ml^−1 TNF-α, 4 μg ml^−1 tunicamycin, E-64 [100 µM] (Sigma), or 2 or 4 μg ml^−1 monensin (Pharmingen). Alternatively, cells were treated for 2 h with GÖ 6983 [250 nM], SB 203580 [100 μM], or OA [100 nM] (Calbiochem) followed by 12 h incubation in serum-free media or treatment with TNF-α. The viability of the cells up to 48 h was almost 100% as measured by MTT assay (Boehringer Mannheim, Indianapolis, Ind.) and LDH release as previously described^12. Supernatants were collected and centrifuged for 20 min at 1500 RPM to remove cell debris and concentrated by a centrifugal filter device (Millipore) in the presence of a protease inhibitor cocktail (Boehringer Mannheim, Indianapolis, Ind.) and were either used immediately or stored at −70° C. Cells were washed and lysed with 1 ml lysis buffer (50 mM Tris pH 7.5, 150 mM NaCl, 1% NP-40 0.1% SDS, 0.5% Na-Deoxycholate and complete EDTA-free protease inhibitor cocktail) was added to the cells and allowed to incubate on ice for 15 min. […] Chemiluminescent signal was detected using the Super Signal West Pico system (Pierce Chemical Co, Rockford, Ill.).

[2] = tested on: secretion of vimentin from MDM; assay: Vimentin secretion by MDM, Western blot of supernatants; conditions: for vimentin secretion (vimentin in the supernatant): MDM treated 2 h with inhibitor (GÖ 6983 250 nM; SB 203580 100 μM), FIGS. 3c, 4a, 4b; for secretion of vimentin from the mature MDM: eleven day MDM, 40% human serum, monensin 2 or 4 μg ml−1 or tunicamycin 4 μg ml−1, 12 h, FIG. 2h
Experimental: Monocyte-derived macrophages (MDMs) were prepared as previously described^40. Briefly, heparinized venous blood was collected upon consent from healthy volunteers, and peripheral blood mononuclear cells (PBMC) were separated by Ficoll-Hypaque (Pharmacia Biotech AB, Uppsala, Sweden) density gradient centrifugation. MDM were purified by adherence to plastic for 2 hat […] at a concentration of 5×10^5 ml^−1. Adherent cells were consistently >90% monocytes as described^40. Adherence-purified human monocytes were cultured in X-vivo medium supplemented with 40% human AB serum (Bio-Whittaker, Walkersville, Md.) and 100 units of penicillin and 50 units of streptomycin per ml^12.
Cells were maintained for 12-48 h in serum-free medium. When applicable, during the incubation in serum-free media cells were treated for 12 h with 10-500 ng ml^−1 IL-10, 0.5-5 ng ml^−1 TNF-α, 4 μg ml^−1 tunicamycin, E-64 [100 µM] (Sigma), or 2 or 4 μg ml^−1 monensin (Pharmingen). Alternatively, cells were treated for 2 h with GÖ 6983 [250 nM], SB 203580 [100 μM], or OA [100 nM] (Calbiochem) followed by 12 h incubation in serum-free media or treatment with TNF-α. The viability of the cells up to 48 h was almost 100% as measured by MTT assay (Boehringer Mannheim, Indianapolis, Ind.) and LDH release as previously described^12. Supernatants were collected and centrifuged for 20 min at 1500 RPM to remove cell debris and concentrated by a centrifugal filter device (Millipore) in the presence of a protease inhibitor cocktail (Boehringer Mannheim, Indianapolis, Ind.) and were either used immediately or stored at −70° C. Cells were washed and lysed with 1 ml lysis buffer (50 mM Tris pH 7.5, 150 mM NaCl, 1% NP-40 0.1% SDS, 0.5% Na-Deoxycholate and complete EDTA-free protease inhibitor cocktail) was added to the cells and allowed to incubate on ice for 15 min. The lysate was centrifuged at 10,000 rpm for 20 min at 4° C., the supernatant recovered, and the protein extract was either used immediately or stored at −70° C. Equal amounts of protein (20 μg) were loaded under reducing conditions and separated by 10% SDS PAGE. The gel was transferred to nitrocellulose and immunoblotted with mouse monoclonal anti-vimentin antibody V9 (Research Genetics, Inc), goat anti-vimentin antibody (Chemicon International, Calif.) or goat anti-actin (Santa-Cruz Biotechnology, Inc) followed by a horseradish peroxidase-conjugated appropriate secondary antibody. Chemiluminescent signal was detected using the Super Signal West Pico system (Pierce Chemical Co, Rockford, Ill.).

[3] = tested on: secretion of vimentin from MDM; assay: as above
[4] = tested on: phosphorylated vimentin in MDM; assay: Immunoprecipitation with anti-phospho-(Ser/Thr) antibody, vimentin detected by V9; conditions: 7 day MDM in 10% serum; okadaic acid 100 nM or GÖ 6983 250 nM, 2 h; FIG. 4d
vimentin in 12 day MDM = assay: In vivo phosphorylation of vimentin, [32P] orthophosphate incorporation in 12 day MDM; conditions: GÖ 6983 250 nM or OA 100 nM during [32P] labeling, Western blot of same membrane, FIG. 4e
Experimental: 12 day MDM (1.5×10^6) were rinsed three times with phosphate-free RPMI medium (Gibco-BRL, Grand Island, N.Y.). Cells were incubated in 5 ml of phosphate-free RPMI media and allowed to equilibrate at 37 ° C. in a 6 well plate for 2 h. The media was replaced with 1 ml/well of phosphate-free RPMI media with 10% dialysed human serum and 0.166 mCi of [^32P] orthophosphoric acid (Amersham Pharmacia Biotech) for 6 h of incubation. In addition to the control, some wells were treated with GÖ 6983 [250 nM] or OA [100 nM]. Following treatment, medium was removed and replaced by serum free medium for 18 h. Supernatant and cells were prepared for immunoprecipitation as described above (Metabolic Labeling section). Phosphorylated vimentin protein was immunoprecipitated as above, and the samples were separated by 10% SDS-PAGE electrophoresis under reducing conditions. Proteins were transferred to nitrocellulose and subjected to autoradiography for 4 h then immunoblotted with mouse monoclonal anti-vimentin antibody (Research Genetics, Inc.), stripped and re-probed with goat polyclonal anti-vimentin antibody (Chemicon International, Calif.), followed by horseradish peroxidase-conjugated goat anti-mouse or rabbit anti-goat secondary antibodies. Chemiluminescent signal was detected using the Super Signal West Pico system (Pierce Chemical Co, Rockford, Ill.).

Molecule: CC(C)C[C@H](NC(=O)[C@H]1O[C@@H]1C(=O)O)C(=O)NCCCCN=C(N)N [E-64]
- vimentin proteolytic products, intracellularly and in the supernatant [1]: marked decrease

Molecule: COc1ccc2c(c1)c(C1=C(c3c[nH]c4ccccc34)C(=O)NC1=O)cn2CCCN(C)C [GÖ6983]
- secretion of vimentin in the presence of TNF-α ([2]; 40% serum treated MDM, GÖ6983 followed by TNF-α): not blocked
- vimentin secretion (vimentin in the supernatant) [2]: almost completely blocked; also recorded: significantly blocked
- amount of actin detected in the supernatants ([2]; eleven day MDM with or without GÖ6983, FIG. 3c): does not modify the amount of actin
- OA-enhanced vimentin secretion ([3]; 7 day MDM in 10% serum, preincubated with GÖ 6983 250 nM 2 h prior to OA 100 nM, FIG. 4b): partially decreased
- amount of phosphorylated vimentin in cells (cytoplasm) and supernatant [4]: markedly decreased the amount of phosphorylated vimentin in the cytoplasm as well as in the supernatant
- secretion of vimentin (62 kD and 52 kD forms) (vimentin in 12 day MDM): eliminated essentially all the secretion of vimentin

Molecule: CC[C@@]1([C@@H]2O[C@@H]([C@H]3O[C@@](O)(CO)[C@H](C)C[C@@H]3C)C[C@@H]2C)CC[C@H]([C@]2(C)CC[C@]3(C[C@H](O)[C@@H](C)[C@@H]([C@@H](C)[C@@H](OC)[C@H](C)C(=O)O)O3)O2)O1 [Monensin, monensin]
- secretion of vimentin from the mature MDM [2]: eliminate secretion of vimentin

Molecule: C=C1[C@@H](O)[C@@H]2O[C@]3(CC[C@H](/C=C/[C@@H](C)[C@@H]4CC(C)=C[C@@]5(O[C@H](C[C@@](C)(O)C(=O)O)CC[C@H]5O)O4)O3)CC[C@H]2O[C@@H]1[C@@H](O)C[C@H](C)[C@H]1O[C@@]2(CCCCO2)CC[C@H]1C [OA, okadaic acid]
- extracellular vimentin levels ([2]; 10 day MDM in 40% serum, okadaic acid 100 nM, 2 h, FIG. 4a): led to an increase in extracellular vimentin levels
- increase in vimentin secretion ([3]; 7 day MDM in 10% serum, okadaic acid 100 nM, 2 h, FIG. 4b): > 10 fold
- amount of phosphorylated vimentin in cells (cytoplasm) and supernatant [4]: increase in phosphorylated vimentin in the supernatants but not in the cells
- secretion of vimentin (62 kD and 52 kD forms) (vimentin in 12 day MDM): preferentially enhances secretion of the 52 kD form

Molecule: C[S+]([O-])c1ccc(-c2nc(-c3ccncc3)c(-c3ccc(F)cc3)[nH]2)cc1 (stereo not shown) [SB203580]
- vimentin secretion (vimentin in the supernatant) [2]: did not block secretion

Molecule: TNF-α
- induction of secretion of vimentin ([3]; 1 day human monocytes in 10% human serum, TNF-α 0.5, 1 or 5 ng ml−1, 12 h, densitometry, FIGS. 5b, 5c): up to 120 fold

Molecule: tunicamycin
- secretion of vimentin from the mature MDM [2]: eliminate secretion of vimentin

B1: IL-10: anti-inflammatory cytokine, a potent inhibitor of activated macrophages (protein, UniProt P22301 19-178, looked up)
Interleukin-10: SPGQGTQSENSCTHFPGNLPNMLRDLRDAFSRVKTFFQMKDQLDNLLLKESLLEDFKGYLGCQALSEMIQFYLEEVMPQAENQDPDIKAHVNSLGENLKTLRLRLRRCHRFLPCENKSKAVEQVKNAFNKLQEKGIYKAMSEFDIFINYIEAYMTMKIRN
- secretion of vimentin ([2]; MDM in 40% human serum, IL-10 10, 50 or 500 ng ml−1, 12 h, FIG. 5a): markedly decreased the secretion of vimentin
